Results from patent publication US7264629B2, “Photodynamic therapy for the treatment of hair loss” (QLT, Inc., priority 2001, dated 2007).

Key:
shaved Balb/C mice = test: PDT-induced stimulation of hair growth using topically-applied photosensitizer in shaved Balb/c mice; assay type: in vivo
Description: To prepare QLT 0074-containing ointment, QLT 0074 photosensitizer was dissolved in glacial acetic acid to solubilize it. The solution was then frozen in a dry ice/isopropanol bath and the acetic acid was removed by lyophilization. The resultant material was a fine fluffy powder. […] The ointment base was prepared by first warming polyethylene glycol 200 (PEG 200) to 80-90° C. with stirring. Polyethylene glycol 3350 (PEG 3.35 K) was then added with stirring, followed by oleyl alcohol, and then diethylene glycol monoethyl ether. Stirring was continued until the solution was clear. The ointment base was cooled to approximately 50° C., and the QLT 0074 was added with stirring. Stirring was continued as the mixture cooled, until a homogenous paste was achieved. […]
Female Balb/C mice (8-14 weeks old) were supplied by Charles River Canada (St. Constance, Quebec). […] Mice were randomly assigned to PDT treatment and controlled groups, and were monitored for pain or distress.
Eighteen mice were shaved to remove hair from the back and both flanks. […] QLT 0074-containing ointment was applied to a square spot on the left side of each of mice 1-9 using a square template, with the same quantity of ointment applied to each spot. […]

[1] = test system: shaved female Balb/c mice; test: Optimization of drug concentration, irradiation dose and light intensity on hair regrowth in shaved mice, topical QLT 0074; assay type: in vivo; settings: for hair regrowth at the treatment site: 0.5% ointment
Description: A study was performed to assess the effect of drug concentration (0.005, 0.05, or 0.5% QLT 0074 ointment), light dose (50, 100 or 150 J/cm^2 red light) and light intensity 50 or 200 mW/cm) on hair regrowth in shaved female Balb/c mice. Mice received QLT 0074 ointment applied to the skin for 30 minutes, followed by a 15-minute treatment with placebo ointment and exposure to red light (688 nm). One group received no QLT 0074 ointment, only the placebo ointment and light exposure. Preparation of ointments and treatment procedure was as outlined in Example 2, except that different amounts of QLT 0074 were added.
Ointments were prepared as in Example 2, except that different amounts of QLT 0074 (on a weight/weight basis) were incorporated into the ointments. The treatment procedure was as outlined in Example 2.

[2] = test system: human males with type II or III Vertex alopecia (AGA); test: Stimulation of hair growth in human subjects with AGA (single topical PDT, terminal hair counts); assay type: in vivo; settings: 0.2% w/w ointment, 50 and 75 J/cm^2; 10 subjects; during and after treatment
Description: A total of 10 subjects were treated. All subjects were human males over 18 years of age and had type II or III Vertex alopecia, rated according to the modified Hamilton-Norwood scale. All subjects received a single application of topical QLT0074 ointment 0.2% weight in weight (w/w) to two of three circular test sites on the vertex area of the scalp. The amount of ointment applied to each test site was approximately 224 mg (about 0.44 mg of photosensitizer per test site). After 2 hours the excess drug was removed and red light (LED's—690 nm) was administered to two of the three sites. The other test site served as a control with no drug or light administration.
Two light dose cohorts (50 and 75 J/cm^2) were investigated with each cohort having 5 subjects.
Safety was assessed by monitoring all adverse events during and after the treatment.
The efficacy was assessed by hair counts 3 months after the treatment and compared to baseline counts.

[3] = test system: C3H/HeJ female mice exhibiting hair loss; test: Stimulation of hair growth in a mouse model of alopecia areata (topical PDT); assay type: in vivo; settings: 0.2% (w/w) ointment
Description: A disease closely resembling human alopecia areata has been observed in aging (over 6-month old) C3H/HeJ mice (see Sundberg, J. P et al, Alopecia Areata in Aging C3H/HeJ Mice, Journal of Investigative Dermatology 102(6): 847-856 [1994[). […] All other areas outside of the treatment site were left untreated.
Following this treatment, all 3 mice received a dose of 50 J/cm^2 688 nm light delivered at a rate of 50 mw/cm^2 in the 1.5 square area. Mice were monitored for skin photosensitivity reactions on Days 1 and 3 after light exposure and observed for hair re-growth for up to 19 days post-treatment.

patients = settings: topical 0.5% HP and UVA three times a week; first week of treatment; two patients; cited from earlier work
alopecia areata patients = settings: 2% khellin and UVA, cited from earlier work

SMILES: C=Cc1c(C)c2cc3nc(cc4[nH]c(cc5nc(cc1[nH]2)C(C)=C5CCC(=O)OCCO)c(CCC(=O)OCCO)c4C)[C@@]1(C)C3=CC=C(C(=O)OC)[C@H]1C(=O)OC [QLT 0074]
- hair re-growth, representative mouse (FIG. 4) (shaved Balb/C mice; 17 days after PDT treatment): Hair re-growth was observed
- number of mice that developed hair growth on the treated area by day 17 (shaved Balb/C mice; out of nine mice, 0.5% w/w ointment 30 min, 688 nm 50 J/cm^2 at 200 mW/cm^2): five
- hair growth ([1]; 0.05% ointment, any light dose): did not exhibit hair growth
- hair regrowth at the treatment site ([1]; 50, 100 or 150 J/cm^2 at 200 mW/cm^2): Hair regrowth at the treatment site was observed
- hair regrowth at the treatment site ([1]; 50 or 100 J/cm^2 red light at 50 mW/cm^2): Hair regrowth at the treatment site was also observed
- moderate or severe skin photosensitivity reactions ([1]; all drug and light dose combinations): no moderate or severe skin photosensitivity reactions were observed
- number of animals with hair regrowth at the treatment site ([1]; of three animals, 0.005% ointment, 150 J/cm^2 at 200 mW/cm^2): one
- skin reactions following treatment ([1]; some treatments, typically highest drug and light dose combinations): Mild skin reactions were evident
- serious adverse events [2]: No serious adverse events were reported
- skin photosensitivity reactions ([3]; 50 J/cm^2 688 nm at 50 mw/cm^2, Days 1 and 3 after light exposure): no skin photosensitivity reactions were observed
- number of mice with increased amount of hair in the treatment area ([3]; of the 3 mice treated, day 7 post-treatment, 50 J/cm^2 688 nm): 2

SMILES: CC1=C(CCC(=O)O)c2cc3[nH]c(cc4nc(cc5[nH]c(cc1n2)c(C)c5C(C)O)C(C)=C4C(C)O)c(C)c3CCC(=O)O (centres unmarked) [hematoporphyrin, Hematoporphyrin]
- skin reactions in treated sites (patients): significant erythema and mild scaling followed by hyperpigmentation

SMILES: COc1c2occc2c(OC)c2c(=O)cc(C)oc12 [khellin]
- phototoxicity (alopecia areata patients): did not cause phototoxicity
- number of patients treated successfully (alopecia areata patients; of the 10 patients tested): 5
